Experimental data as given in patent publication US20250041307A1, “Uses of Bicyclic Compounds for the Treatment of Diseases” (Athira Pharma, Inc., priority 2021, published 2025).

Assays:
Format in all cases: cell-based
[1] = test system: MDCK cells; experiment: Cell scattering behavior assay; parameters: key: − indicates that the compound failed to significantly promote cell scattering behavior; + indicates maximum potency at or above 100 nM; ++ indicates maximum potency at or above 10 nM; +++ indicates maximum potency at or above 1 nM; ++++ indicates maximum potency at or above 0.1 nM; details: with 5 ng/mL HGF, 24 hours, normalized particle count compared to HGF treatment alone
Protocol: MDCK cells were grown under normal conditions and observed to spontaneously form tight colonies as they proliferate. MDCK cells respond to HGF treatment by moving away from each other (scattering), which is quantified to assess the amount of HGF/MET activation in the cell population. In this experiment, MDCK cells were plated in a 96-well format, treated with HGF and exemplary compounds, fluorescently stained, imaged in large fields, and scattering behavior was quantified. Quantification was determined by analyzing the number of continuous groups of cells compared to the total stained area imaged (normalized particle counts).
MDCK cells were plated at low density in black-walled imaging plates and allowed to attach overnight at 37° C. and 5% CO2 in DMEM+10% FBS. Cells were then starved to 2 hours in DMEM without FBS (“starve media”). Samples containing exemplary compounds were prepared in DMEM without FBS and included 5 ng/mL HGF protein (“treatment media”). A control curve was also prepared for each plate using HGF concentrations of 0, 5, 10, and 20 ng/mL. Starve media was replaced with treatment media and cells were incubated for 24 hours at 37° C. and 5% CO2.
After incubation, cells were fixed by replacing treatment media with cold ethanol and incubating for 20 minutes at 4° C. Cells were then rehydrated by washing with PBS and then with stain solution (fluorescent wheat germ agglutinin; WGA488 at 20 μg/mL in PBS). Cells were incubated with stain solution 30 minutes at room temperature after which stain solution was replaced with fresh PBS.
Fields of cells were imaged using an iCyte high content imager in the green wavelength. Images were converted to binary and analyzed for particle size and particle count. For the purpose of analysis, an individual cell touching no other cells or separated colonies of cells were identified as particles, and particle counts were normalized by the total signal area to account for differences in cell number. […] Compound potency was assessed by statistical increase in normalized particle count compared to HGF treatment alone.

[2] = test system: HGF/MET system; experiment: Phospho-MET ELISA; parameters: key: − indicates that the compound failed to significantly augment MET phosphorylation; + indicates maximum potency at or above 100 nM; ++ indicates maximum potency at or above 10 nM; +++ indicates maximum potency at or above 1 nM; ++++ indicates maximum potency at or above 0.1 nM; details: HEK293 cells; with 1 ng/mL recombinant HGF; 15 minutes; augmentation of MET phosphorylation (pMET ELISA)
Protocol: Compounds were screened for potency towards the HGF/MET system using phospho-MET (pMET) ELISA kits (Cell Signaling). pMET levels were detected in samples having low (1 ng/mL) and high (10 ng/mL) concentrations of HGF.
HEK293 cells were prepared by passage into 6-well multi-plates and grown at 37° C. at 5% CO2 in DMEM+10% FBS until approximately 90% confluent. Cells were then starved for at least 8 hours in serum-free growth media.
Exemplary compounds were prepared in DMEM+0.1% FBS, diluted and added to treatment media with 1 ng/mL recombinant HGF protein (R&D Systems). Cells were incubated in triplicate at 37° C. and 5% CO2 for 15 minutes. Samples were then treated with 180 μL ice-cold RIPA (radioimmunoprecipitation assay) buffer and cells were lysed on ice for 15 minutes. Lysates were cleared by centrifugation at 16,000-g for 15 minutes and the supernatant was retained. Samples were normalized using a BCA assay of lysates to determine protein concentrations across the samples.
Between 50 and 100 μg total protein lysate was loaded into ELISA wells in pMET Sandwich ELISA kit (Cell Signaling Catalog #7227C), ensuring equal protein load in each well. The ELISA was processed according to manufacturer's instructions. After color developed, absorbance was read on an optical plate reader at 450 nm.
Potency measurements were determined using peak efficacy by scaling test compound dose treatments along a scale of 1-10 between 1 ng/mL and 10 ng/mL HGF doses according to the following formula: […]
where y is the normalized data-point, x is the raw data point, A is the mean HGF at 1 ng/mL, and B is the mean HGF at 10 ng/mL.

[3] = test system: Rat primary cortical neuron cultures; experiment: Protection from neurotoxicity in vitro (Cell Titer-Glo viability); details: 24 hours, with HGF 5 ng/ml
Protocol: HGF/MET signaling activation is expected to protect cells, including neurons, from cell death. […] Hydrogen peroxide (H2O2) treatment produces toxic oxidative stress. Bacteria-derived lipopolysaccharide (LPS) treatment induces inflammatory cell death. Treatment with excess glutamate (Glut) produces excitotoxicity in neuron cultures. Treatment with 1-methyl-4-phenylpyridinium (MPP^+) causes cell death by inhibition of mitochondrial function.
Rat primary cortical neuron cultures were grown at 37° C., 5% CO2 in Complete Neurobasal Medium supplemented with B27/GDNF/BDNF containing 10% FBS until maturity and were then seeded in 384-well plate at 5,000 cells/well. Cultures were then treated for 15 minutes with 1 uM, 100 nM, 10 nM, 1 nM, or 0.1 nM of compound 1a. Cells were then subjected to individual conditional insults for 24 hours at the following concentrations: H2O2 at 1 uM, LPS at 1 uM, glutamate at 25 uM, MPP+ at 500 uM. All treatments contained recombinant human HGF (R&D Systems) at a concentration of 5 ng/ml.
To quantify neuroprotection, cell viability was measured with the Cell Titer-Glo Luminescent Cell Viability Assay (Promega, Cat #G7571). Data was normalized to DMSO+HGF control set at 100% cell viability. Statistical analyses for each group (n=4) were performed using one-way ANOVA with Tukey's Multiple comparison test.
Data is reported as statistical significance vs. insult control, with NS=not significant, +=p<0.05, ++=p<0.01, and +++=p<0.001.

Structure (SMILES) | Potency [1] | Potency [2] | Insult effect (% viability vs vehicle) ([3]; 1 uM) [%] | Insult effect (% viability vs vehicle) ([3]; 25 uM) [%]
CCC(C)CN1CC2N(C(=O)c3ccc(Cl)cc3)CCC(=O)N2C(C)C1=O (stereo not shown) [Compound 10, 1-(4-chlorobenzoyl)-6-methyl-8-(2-methylbutyl)hexahydro-4H-pyrazino[1,2-a]pyrimidine-4,7(6H)-dione] | − | − |  | 
CC1C(=O)N(CC2CCCC2)CC2N(C(=O)c3ccc(OC(F)F)cc3)CCC(=O)N12 (stereo not shown) [Compound 13] | − | − |  | 
CC1C(=O)N(CC2CCCC2)CC2N(C(=O)c3ccc(C(F)(F)F)cc3)CCC(=O)N12 (stereo not shown) [Compound 15] | − | − |  | 
CC1C(=O)N(CC2CCC2)CC2N(C(=O)c3ccc(C(F)(F)F)cc3)CCC(=O)N12 (stereo not shown) [Compound 16] | − | − |  | 
C=CCCN1CC2N(C(=O)c3ccc(OC(F)F)cc3)CCC(=O)N2C(C)C1=O (stereo not shown) [Compound 18] | − | − |  | 
CCCCN1CC2N(C(=O)c3ccc(C(F)(F)F)cc3)CCC(=O)N2C(C)C1=O (stereo not shown) [Compound 21] | − | − |  | 
CC(C)CN1CC2N(C(=O)c3ccc(C(F)(F)F)cc3)CCC(=O)N2C(C)C1=O (stereo not shown) [Compound 23] | − | − |  | 
CC(C)N1CC2N(C(=O)c3ccc(C(F)(F)F)cc3)CCC(=O)N2C(C)C1=O (stereo not shown) [Compound 24] | − | − |  | 
CC1C(=O)N(CCc2ccco2)CC2N(C(=O)c3ccc(OC(F)F)cc3)CCC(=O)N12 (stereo not shown) [Compound 25] | − | − |  | 
CC1C(=O)N(CCc2cccs2)CC2N(C(=O)c3ccc(OC(F)F)cc3)CCC(=O)N12 (stereo not shown) [Compound 26] | − | − |  | 
CC1C(=O)N(CC2CCCO2)CC2N(C(=O)c3ccc(OC(F)F)cc3)CCC(=O)N12 (stereo not shown) [Compound 27] |  | − |  | 
CC1C(=O)N(CCc2ccccc2)CC2N(C(=O)c3ccc(OC(F)F)cc3)CCC(=O)N12 (stereo not shown) [Compound 28] | − | − |  | 
CC1C(=O)N(CCc2ccncc2)CC2N(C(=O)c3ccc(OC(F)F)cc3)CCC(=O)N12 (stereo not shown) [Compound 29] |  | − |  | 
CC1C(=O)N(CCC2CC2)CC2N(C(=O)c3ccc(OC(F)F)cc3)CCC(=O)N12 (stereo not shown) [Compound 31] | − | − |  | 
COCCN1CC2N(C(=O)c3ccc(OC(F)F)cc3)CCC(=O)N2C(C)C1=O (stereo not shown) [Compound 32] | − | − |  | 
COCCCN1CC2N(C(=O)c3ccc(OC(F)F)cc3)CCC(=O)N2C(C)C1=O (stereo not shown) [Compound 33] | − | − |  | 

Structure (SMILES) | Potency [1] | Potency [2] | Insult effect (% viability vs vehicle) ([3]; 1 uM) [%] | Insult effect (% viability vs vehicle) ([3]; 25 uM) [%]
CC1C(=O)N(CCO)CC2N(C(=O)c3ccc(OC(F)F)cc3)CCC(=O)N12 (stereo not shown) [Compound 34, 1-(4-(difluoromethoxy)benzoyl)-8-(2-hydroxyethyl)-6-methylhexahydro-4H-pyrazino[1,2-a]pyrimidine-4,7(6H)-dione] | − | − |  | 
CC1C(=O)N(CCN)CC2N(C(=O)c3ccc(OC(F)F)cc3)CCC(=O)N12 (stereo not shown) [Compound 35, 8-(2-aminoethyl)-1-(4-(difluoromethoxy)benzoyl)-6-methylhexahydro-4H-pyrazino[1,2-a]pyrimidine-4,7(6H)-dione] | − | − |  | 
CC1C(=O)N(CCS(C)(=O)=O)CC2N(C(=O)c3ccc(OC(F)F)cc3)CCC(=O)N12 (stereo not shown) [Compound 36] | − | − |  | 
CC1C(=O)N(CCC2CCCC2)CC2N(Cc3ccc(OC(F)F)cc3)CCC(=O)N12 (stereo not shown) [Compound 38] |  | − |  | 
C=CCCN1CC2N(Cc3ccc(OC(F)F)cc3)CCC(=O)N2C(C)C1=O (stereo not shown) [Compound 39] | − | − |  | 
CC1C(=O)N(CCC2CCC2)CC2N(Cc3ccc(OC(F)F)cc3)CCC(=O)N12 (stereo not shown) [Compound 40] |  | − |  | 
CCCCN1CC2N(Cc3ccc(OC(F)F)cc3)CCC(=O)N2C(C)C1=O (stereo not shown) [Compound 41] | − | − |  | 
CCC(C)CN1CC2N(Cc3ccc(C(F)(F)F)c(Cl)c3)CCC(=O)N2C(C)C1=O (stereo not shown) [Compound 43] | − | − |  | 
CCC(C)CN1CC2N(Cc3c[nH]c4ccccc34)CCC(=O)N2C(C)C1=O (stereo not shown) [Compound 44] | − | − |  | 
CC1C(=O)N(CCC2CCC2)CC2N(Cc3ccc(F)cc3)CCC(=O)N12 (stereo not shown) [Compound 45, 8-(2-cyclobutylethyl)-1-(4-fluorobenzyl)-6-methylhexahydro-4H-pyrazino[1,2-a]pyrimidine-4,7(6H)-dione] |  | − |  | 
CC1C(=O)N(CCC2CCCC2)CC2N(Cc3ccc(F)cc3)CCC(=O)N12 (stereo not shown) [Compound 46, 8-(2-cyclopentylethyl)-1-(4-fluorobenzyl)-6-methylhexahydro-4H-pyrazino[1,2-a]pyrimidine-4,7(6H)-dione] | − | − |  | 
CCC(C)CN1CC2N(Cc3ccc(OC(F)F)cc3)CCC(=O)N2C(CF)C1=O (stereo not shown) [Compound 47, 1-(4-(difluoromethoxy)benzyl)-6-(fluoromethyl)-8-(2-methylbutyl)hexahydro-4H-pyrazino[1,2-a]pyrimidine-4,7(6H)-dione] |  | − |  | 
CCC(C)CN1CC2N(Cc3ccc(C(F)(F)F)cc3)CCC(=O)N2C(CF)C1=O (stereo not shown) [Compound 48, 6-(fluoromethyl)-8-(2-methylbutyl)-1-(4-(trifluoromethyl)benzyl)hexahydro-4H-pyrazino[1,2-a]pyrimidine-4,7(6H)-dione] |  | − |  | 
CCC(C)CN1CC2N(Cc3ccc(OC(F)F)cc3)CCC(=O)N2C(CC(N)=O)C1=O (stereo not shown) [Compound 50, 2-(1-(4-(difluoromethoxy)benzyl)-8-(2-methylbutyl)-4,7-dioxooctahydro-2H-pyrazino[1,2-a]pyrimidin-6-yl)acetamide] | − | − |  | 
OO [Compound H2O2, Hydrogen peroxide, reference compound] |  |  | 64.23 | 
N[C@@H](CCC(=O)O)C(=O)O [Glutamate, glutamate, reference compound] |  |  |  | 49.55
